We go through 4 compounds from patent publication EP0416746A2 (priority 1989, dated 1991).

In one experiment the test system is Plasmopara viticola. Format: in vivo.
The subject of the next experiment is Phytophthora infestans. Type of experiment: in vivo. The following applies: active = greater than 50% control of the disease at 125 ppm (w/v) or less; spray or stem base drench; late tomato blight.
In another experiment the test system is Venturia inaequalis. The following applies: in vivo.
In another experiment the test system is Botrytis cinerea. Format: in vivo. The following applies: active = greater than 50% control of the disease at 125 ppm (w/v) or less; spray or stem base drench; grey mould of tomato.
For the next experiment, the system named is Pyricularia oryzae. Format: in vivo. The following applies: active = greater than 50% control of the disease at 125 ppm (w/v) or less; spray or stem base drench; rice blast.
For a further experiment, the system named is Pellicularia sasakii. Format: in vivo.
For the next experiment, the system named is Erysiphe graminis. Format: in vivo. The following applies: active = greater than 50% control of the disease at 125 ppm (w/v) or less; spray or stem base drench; barley powdery mildew.

Like-named read-outs stand apart in the source and are kept apart here.

Take `CO/C=C(/C(=O)OC)c1ccccc1CSC(=O)c1ccccc1` [Compound 1, methyl (E)-2-[2-(benzoylthiomethyl)phenyl]-3-methoxy-2-propenoate]: in the experiment with Plasmopara viticola (in vivo), the PV result is reported as “+ (key: + = active)”. For the same compound, in the experiment on Phytophthora infestans, the PI entry is listed as “+ (+ = active)”. In addition, the VI result in the experiment with Venturia inaequalis is “+ (key: + = active)”.

With `CO/C=C(/C(=O)OC)c1ccccc1CSC(=O)C(C)(C)C` [Compound 2], the PV entry in the experiment on Plasmopara viticola (active = greater than 50% control of the disease at 125 ppm (w/v) or less, spray or stem base drench, vine downy mildew) is “+ (+ = active)”. Further, the BC entry in the experiment with Botrytis cinerea is listed as “+ (+ = active)”. The PO result in the experiment on Pyricularia oryzae was “+ (+ = active)”. Further, the PS entry in the experiment on Pellicularia sasakii (active = greater than 50% control of the disease at 125 ppm (w/v) or less, spray or stem base drench, rice sheath blight) is “+ (+ = active)”. For the same compound, the EG entry with Erysiphe graminis was “+ (+ = active)”. Besides, the PI entry in the experiment on Phytophthora infestans is reported as “+ (+ = active)”.

`CO/N=C(/C(=O)OC)c1ccccc1CSC(=O)c1ccccc1` [Compound 12, methyl (E)-2-[2-(benzoylthiomethyl)phenyl]-(methoxyimino)acetate]: in the experiment with Plasmopara viticola (in vivo), the PV result is given as “+ (key: + = active)”. The VI entry with Venturia inaequalis is on record as “+ (key: + = active)”.

For `CO/C=C(/C(=O)OC)c1ccccc1CSC(C)=O` [Compound 3, methyl (E)-2-[2-(acetylthiomethyl)phenyl]-3-methoxy-2-propenoate], the PS entry in the experiment on Pellicularia sasakii (in vivo) is “+ (key: + = active)”. Further, in the experiment on Venturia inaequalis, the VI entry is on record as “+ (key: + = active)”.
